Source: US6500853B1, “Inhibitors of phospholipase enzymes” (Genetics Institute, LLC, priority 1998, dated 2002)
Blank lines part the entries; values can stand above or below the compound they belong to.

How the values were obtained:
[1] = system: Rat Carrageenan-Induced Footpad Edema; experiment: Rat Carrageenan-Induced Footpad Edema Test; type: in vivo, male Sprague Dawley rats; conditions: footpad volume 3 hours after carrageenan; for inhibition in vivo at 5 mg/kg / inhibition in vivo at 2 mg/kg / inhibition in vivo at 10 mg/kg: Rattus norvegicus, 3 h, read-out: PERCENT INHIBITION; for inhibition in vivo at 5 mg/kg: iv; for inhibition in vivo at 2 mg/kg / inhibition in vivo at 10 mg/kg: po
cPLA2 = target: T1, cPLA2 (Homo sapiens, UniProt P47712); experiment: Coumarin Assay (cPLA2 inhibition); type: biochemical; conditions: for inhibition at 0.7 µM: CONCENTRATION 0.7 micromolar; for inhibition at 1 µM: CONCENTRATION 1 micromolar; for inhibition at 3 µM: CONCENTRATION 3 micromolar; for inhibition at 3.8 µM: CONCENTRATION 3.8 micromolar
T1 sequence (P47712 1-749): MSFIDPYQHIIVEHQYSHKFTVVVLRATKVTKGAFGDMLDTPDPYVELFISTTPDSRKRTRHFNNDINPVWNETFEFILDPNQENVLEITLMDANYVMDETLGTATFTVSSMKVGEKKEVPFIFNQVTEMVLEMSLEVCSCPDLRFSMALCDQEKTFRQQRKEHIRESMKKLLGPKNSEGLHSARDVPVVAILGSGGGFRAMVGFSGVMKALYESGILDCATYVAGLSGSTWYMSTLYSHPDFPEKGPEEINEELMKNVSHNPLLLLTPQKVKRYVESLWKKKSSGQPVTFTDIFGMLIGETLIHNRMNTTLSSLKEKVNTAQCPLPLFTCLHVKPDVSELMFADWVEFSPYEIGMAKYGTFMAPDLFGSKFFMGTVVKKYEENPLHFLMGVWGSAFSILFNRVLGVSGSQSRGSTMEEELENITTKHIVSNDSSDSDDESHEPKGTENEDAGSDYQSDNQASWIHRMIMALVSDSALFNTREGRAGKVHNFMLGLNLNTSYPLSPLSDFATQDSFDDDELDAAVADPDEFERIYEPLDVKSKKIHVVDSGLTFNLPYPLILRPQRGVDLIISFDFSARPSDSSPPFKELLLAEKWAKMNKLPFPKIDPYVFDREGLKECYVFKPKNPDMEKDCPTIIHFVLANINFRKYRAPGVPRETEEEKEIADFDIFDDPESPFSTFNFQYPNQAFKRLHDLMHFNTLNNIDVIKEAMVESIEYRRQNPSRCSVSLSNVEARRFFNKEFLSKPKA
Method in brief: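 Percent inhibition at the stated concentration, from the rate of 460 nm emission rise (360 nm excitation) per minute. Reaction started by adding 4 μg enzyme to compound and 60 μM 7-hydroxycoumarinyl 6-heptenoate in Hepes buffer pH 7.5 with 1 mM EDTA.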

[2] = CONCENTRATION 2.5 micromolar, read-out: PERCENT INHIBITION @

Structure (SMILES): COc1cc(C(=O)NS(=O)(=O)c2ccccc2C)ccc1Cc1cn(C(C)C)c2ccc(NC(=O)OC3CCCC3)cc12 [Example 24, Cyclopentyl N-{1-isopropyl-3-[2-methoxy-4-({[(2-methylphenyl)sulfonyl]amino}carbonyl)benzyl]-1H-indol-5-yl}carbamate]
inhibition in vivo at 5 mg/kg ([1]; IV, 5 mg/Kg): 8.33%
PERCENT INHIBITION @ (cPLA2; CONCENTRATION 100 micromolar): 50%
inhibition at 100 µM (cPLA2; CONCENTRATION 100 micromolar, read-out: PERCENT INHIBITION @): 42%

Structure (SMILES): COc1cc(C(=O)NS(C)(=O)=O)ccc1Cc1cn(C(c2ccccc2)c2ccccc2)c2ccc(NC(=O)OC3CCCC3)cc12 [Example 27, cyclopentyl N-[1-benzhydryl-3-(2-methoxy-4-{[(methylsulfonyl)amino]carbonyl}benzyl)-1H-indol-5-yl]carbamate]
inhibition in vivo at 5 mg/kg ([1]; IV, 5 mg/Kg): 6.48%
inhibition at 6 µM (cPLA2; CONCENTRATION 6 micromolar, read-out: PERCENT INHIBITION @): 50%
inhibition at 6.4 µM (cPLA2; CONCENTRATION 6.4 micromolar, read-out: PERCENT INHIBITION @): 50%

Structure (SMILES): COc1cc(C(=O)NS(=O)(=O)c2ccccc2Cl)ccc1Cc1cn(C(c2ccccc2)c2ccccc2)c2ccc(NC(=O)OC3CCCC3)cc12 [Example 28, cyclopentyl N-{1-benzhydryl-3-[4-({[(2-chlorophenyl)sulfonyl]amino}carbonyl)-2-methoxybenzyl]-1H-indol-5-yl}carbamate]
inhibition in vivo at 5 mg/kg ([1]; IV, 5 mg/Kg): 0.29%
inhibition at 4.2 µM (cPLA2; CONCENTRATION 4.2 micromolar, read-out: PERCENT INHIBITION @): 50%
inhibition at 4.4 µM (cPLA2; CONCENTRATION 4.4 micromolar, read-out: PERCENT INHIBITION @): 50%

Structure (SMILES): COc1cc(C(=O)NS(=O)(=O)c2cccc3c(N(C)C)cccc23)ccc1Cc1cn(C(c2ccccc2)c2ccccc2)c2ccc(NC(=O)OC3CCCC3)cc12 [Example 30]
PERCENT INHIBITION ([1]; IV, 5 mg/Kg): 13.89%
PERCENT INHIBITION ([1]; PO, 2 mg/Kg): −0.11%
PERCENT INHIBITION ([1]; PO, 10 mg/Kg): 13.25%
PERCENT INHIBITION @ (cPLA2; CONCENTRATION 8 micromolar): 50%
PERCENT INHIBITION @ (cPLA2; CONCENTRATION 20 micromolar): 46%
PERCENT INHIBITION @ (cPLA2; CONCENTRATION 21 micromolar): 50%
PERCENT INHIBITION @ (cPLA2; CONCENTRATION 24 micromolar): 50%

Structure (SMILES): COc1cc(C(=O)NS(=O)(=O)c2ccccc2C)ccc1Cc1cn(C(c2ccccc2)c2ccccc2)c2ccc(Br)cc12 [Example 38, N-{4-[(1-benzhydryl-5-bromo-1H-indol-3-yl)methyl]-3-methoxybenzoyl}-2-methylbenzenesulfonamide]
inhibition in vivo at 2 mg/kg ([1]; PO, 2 mg/Kg): 15.4%
inhibition in vivo at 10 mg/kg ([1]; PO, 10 mg/Kg): 26.3%
inhibition at 0.3 µM (cPLA2; CONCENTRATION 0.3 micromolar, read-out: PERCENT INHIBITION @): 50%
inhibition at 0.45 µM (cPLA2; CONCENTRATION 0.45 micromolar, read-out: PERCENT INHIBITION @): 50%
inhibition at 0.57 µM (cPLA2; CONCENTRATION 0.57 micromolar, read-out: PERCENT INHIBITION @): 50%
inhibition at 0.59 µM (cPLA2; CONCENTRATION 0.59 micromolar, read-out: PERCENT INHIBITION @): 50%
inhibition at 0.6 µM (cPLA2; CONCENTRATION 0.6 micromolar, read-out: PERCENT INHIBITION @): 50%
inhibition at 0.64 µM (cPLA2; CONCENTRATION 0.64 micromolar, read-out: PERCENT INHIBITION @): 50%
inhibition at 0.7 µM (cPLA2; read-out: PERCENT INHIBITION @): 50%
inhibition at 0.85 µM (cPLA2; CONCENTRATION 0.85 micromolar, read-out: PERCENT INHIBITION @): 50%
inhibition at 1 µM (cPLA2; read-out: PERCENT INHIBITION @): 50%

Continued, in another order:

inhibition at 2.4 µM (cPLA2; CONCENTRATION 2.4 micromolar, read-out: PERCENT INHIBITION @): 50%
inhibition at 2.5 µM (cPLA2; [2]): 50%
Structure (SMILES): COc1cc(C(=O)NS(=O)(=O)C(F)(F)F)ccc1Cc1cn(C(c2ccccc2)c2ccccc2)c2ccc(NC(=O)OC3CCCC3)cc12 [Example 26, Cyclopentyl N-{1-benzhydryl-3-[2-methoxy-4-({[(trifluoromethyl)sulfonyl]amino}carbonyl)benzyl]-1H-indol-5-yl}carbamate]
inhibition in vivo at 5 mg/kg ([1]; IV, 5 mg/Kg): 25.3%

inhibition at 0.4 µM (cPLA2; CONCENTRATION 0.4 micromolar, read-out: PERCENT INHIBITION @): 50%
inhibition at 0.5 µM (cPLA2; CONCENTRATION 0.5 micromolar, read-out: PERCENT INHIBITION @): 50%
inhibition at 0.55 µM (cPLA2; CONCENTRATION 0.55 micromolar, read-out: PERCENT INHIBITION @): 50%
inhibition at 0.65 µM (cPLA2; CONCENTRATION 0.65 micromolar, read-out: PERCENT INHIBITION @): 50%
Structure (SMILES): COc1cc(C(=O)NS(=O)(=O)C(F)(F)F)ccc1Cc1cn(C(c2ccccc2)c2ccccc2)c2ccc([N+](=O)[O-])cc12 [Example 37, N-{4-[(1-benzhydryl-5-nitro-1H-indol-3-yl)methyl]-3-methoxybenzoyl}(trifluoro)methanesulfonamide]
inhibition in vivo at 2 mg/kg ([1]; PO, 2 mg/Kg): -7.94%
inhibition in vivo at 10 mg/kg ([1]; PO, 10 mg/Kg): 3.36%

inhibition at 0.39 µM (cPLA2; CONCENTRATION 0.39 micromolar, read-out: PERCENT INHIBITION @): 50%
inhibition at 0.7 µM (cPLA2; read-out: PERCENT INHIBITION @): 50%
inhibition at 0.73 µM (cPLA2; CONCENTRATION 0.73 micromolar, read-out: PERCENT INHIBITION @): 50%
inhibition at 0.75 µM (cPLA2; CONCENTRATION 0.75 micromolar, read-out: PERCENT INHIBITION @): 50%
inhibition at 0.8 µM (cPLA2; CONCENTRATION 0.8 micromolar, read-out: PERCENT INHIBITION @): 50%
inhibition at 0.9 µM (cPLA2; CONCENTRATION 0.9 micromolar, read-out: PERCENT INHIBITION @): 50%
inhibition at 1 µM (cPLA2; read-out: PERCENT INHIBITION @): 50%
inhibition at 1.2 µM (cPLA2; CONCENTRATION 1.2 micromolar, read-out: PERCENT INHIBITION @): 50%
inhibition at 1.3 µM (cPLA2; CONCENTRATION 1.3 micromolar, read-out: PERCENT INHIBITION @): 50%
inhibition at 1.6 µM (cPLA2; CONCENTRATION 1.6 micromolar, read-out: PERCENT INHIBITION @): 50%
Structure (SMILES): COc1cc(C(=O)NS(=O)(=O)C(F)(F)F)ccc1Cc1cn(C(c2ccccc2)c2ccccc2)c2ccc(Br)cc12 [Example 39, N-{4-[(1-benzhydryl-5-bromo-1H-indol-3-yl)methyl]-3-methoxybenzoyl}(trifluoro)methanesulfonamide]
inhibition in vivo at 2 mg/kg ([1]; PO, 2 mg/Kg): 1.98%
inhibition in vivo at 10 mg/kg ([1]; PO, 10 mg/Kg): -7.16%

PERCENT INHIBITION @ (cPLA2; CONCENTRATION 2.5 micromolar): 55%
inhibition at 2.5 µM (cPLA2; [2]): 50%
inhibition at 3 µM (cPLA2; read-out: PERCENT INHIBITION @): 50%
inhibition at 3.6 µM (cPLA2; CONCENTRATION 3.6 micromolar, read-out: PERCENT INHIBITION @): 50%
Structure (SMILES): COc1cc(C(=O)NS(=O)(=O)C(F)(F)F)ccc1Cc1cn(C(c2ccccc2)c2ccccc2)c2ccc(NC(=O)C3CCCC3)cc12 [Example 40, N-{1-benzhydryl-3-[2-methoxy-4-({[(trifluoromethyl)sulfonyl]amino}carbonyl)benzyl]-1H-indol-5-yl}cyclopentanecarboxamide]
inhibition in vivo at 5 mg/kg ([1]; IV, 5 mg/Kg): 8.21%

inhibition at 2.5 µM (cPLA2; [2]): 50%
inhibition at 3.8 µM (cPLA2; read-out: PERCENT INHIBITION @): 50%
inhibition at 4.3 µM (cPLA2; CONCENTRATION 4.3 micromolar, read-out: PERCENT INHIBITION @): 50%
inhibition at 5 µM (cPLA2; CONCENTRATION 5 micromolar, read-out: PERCENT INHIBITION @): 50%
Structure (SMILES): COc1cc(C(=O)NS(=O)(=O)C(F)(F)F)ccc1Cc1cn(C(c2ccccc2)c2ccccc2)c2ccc(NS(C)(=O)=O)cc12 [Example 41, N-[4-({1-benzhydryl-5-[(methylsulfonyl)amino]-1H-indol-3-yl}methyl)-3-methoxybenzoyl](trifluoro)methanesulfonamide]
inhibition in vivo at 5 mg/kg ([1]; IV, 5 mg/Kg): 10.1%

inhibition at 2.2 µM (cPLA2; CONCENTRATION 2.2 micromolar, read-out: PERCENT INHIBITION @): 50%
inhibition at 3 µM (cPLA2; read-out: PERCENT INHIBITION @): 50%
inhibition at 3.8 µM (cPLA2; read-out: PERCENT INHIBITION @): 50%
Structure (SMILES): CCCCNC(=O)Nc1ccc2c(c1)c(Cc1ccc(C(=O)NS(=O)(=O)C(F)(F)F)cc1OC)cn2C(c1ccccc1)c1ccccc1 [Example 42, N-{4-[(1-benzhydryl-5-{[(butylamino)carbonyl]amino}-1H-indol-3-yl)methyl]-3-methoxybenzoyl}(trifluoro)methanesulfonamide]
inhibition in vivo at 5 mg/kg ([1]; IV, 5 mg/Kg): 7.72%
